From patent US12509421B2, “Preparation and application of deuterated 4-phenyl-4-piperidinols” (priority 2022, dated 2025)
pIC50: −log10 of the molar value. Structures can show the parent of a compound that is named as a salt. Where two headings read alike, the source gives them in different places.

Tests used:
hERG potassium channel = hERG potassium channel (Homo sapiens, UniProt Q12809); assay: hERG potassium channel whole-cell patch clamp (HEK293); assay type: cell-based; set-up: expressed in transfected cells; host or cells: HEK293 cell line; conditions: for pIC50: HEK293 cells stably expressing hERG, whole-cell patch clamp, room temperature, read-out: Half-inhibition concentration of compounds to be tested on hERG (IC50)
Sequence of hERG potassium channel (Q12809 whole entry, the tested form may be a part): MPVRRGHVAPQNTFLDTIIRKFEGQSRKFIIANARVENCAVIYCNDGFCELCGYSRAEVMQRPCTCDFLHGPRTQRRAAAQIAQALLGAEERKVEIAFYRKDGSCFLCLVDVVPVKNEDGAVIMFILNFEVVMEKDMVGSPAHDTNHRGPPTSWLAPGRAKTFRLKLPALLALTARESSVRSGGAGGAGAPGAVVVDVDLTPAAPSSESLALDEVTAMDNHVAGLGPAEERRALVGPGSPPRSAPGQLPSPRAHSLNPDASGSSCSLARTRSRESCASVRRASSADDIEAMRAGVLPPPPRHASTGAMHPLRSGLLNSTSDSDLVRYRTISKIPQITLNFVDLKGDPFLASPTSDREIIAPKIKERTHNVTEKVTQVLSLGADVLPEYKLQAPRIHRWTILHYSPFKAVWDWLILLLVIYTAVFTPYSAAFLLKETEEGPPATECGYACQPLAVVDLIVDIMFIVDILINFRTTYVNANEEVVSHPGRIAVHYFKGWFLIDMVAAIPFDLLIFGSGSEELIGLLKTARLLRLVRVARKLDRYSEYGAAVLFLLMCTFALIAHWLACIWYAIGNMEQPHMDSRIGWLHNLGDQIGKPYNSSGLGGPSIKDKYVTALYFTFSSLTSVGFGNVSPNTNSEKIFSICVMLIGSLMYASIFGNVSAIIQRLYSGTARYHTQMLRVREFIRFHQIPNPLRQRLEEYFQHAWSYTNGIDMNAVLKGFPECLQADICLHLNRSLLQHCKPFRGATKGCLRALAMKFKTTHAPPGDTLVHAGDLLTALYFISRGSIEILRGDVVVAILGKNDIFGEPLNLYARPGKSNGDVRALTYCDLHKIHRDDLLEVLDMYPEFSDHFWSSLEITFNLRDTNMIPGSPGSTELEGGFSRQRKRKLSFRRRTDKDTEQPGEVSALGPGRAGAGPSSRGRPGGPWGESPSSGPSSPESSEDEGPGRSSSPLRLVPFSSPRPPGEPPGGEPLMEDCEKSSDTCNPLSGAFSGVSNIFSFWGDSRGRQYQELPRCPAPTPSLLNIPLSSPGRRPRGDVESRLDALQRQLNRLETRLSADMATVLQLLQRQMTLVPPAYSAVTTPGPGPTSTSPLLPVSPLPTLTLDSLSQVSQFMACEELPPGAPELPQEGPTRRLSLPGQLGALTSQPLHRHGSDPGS
How it was run: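 Whole-cell patch clamp in HEK293 cells at room temperature: tail current elicited by −80 to 30 mV for 2.5 s, then −50 mV for 4 s, every 10 s. Ascending concentrations were gravity-perfused for 5 min each, with each cell's compound-free current as control. IC50 came from nonlinear fit of inhibition.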

Female Kunming mice = conditions: as disclosed in patent CN201911076305.X; cited from earlier work

Structure (SMILES) | hERG inhibition grade (hERG potassium channel; listed as Example 20 of patent CN201911076305.X, hydrochloride) | hERG inhibition grade (hERG potassium channel; listed as example 20 of the prior art CN201911076305.X, hydrochloride) | ED50 in mouse hot plate experiments (Female Kunming mice) [mg/kg] | hERG inhibition grade (hERG potassium channel) | pIC50 (hERG potassium channel)
COc1cccc([C@]2(O)CCN(S(=O)(=O)Cc3ccccc3)C[C@H]2CN(C)C)c1.Cl [Example 20 of CN201911076305.X, reference compound] | moderate inhibitory effects on hERG | μM(Moderate intensity inhibition) | 0.49 |  | 
[2H]C([2H])([2H])N(C[C@@H]1CN(S(=O)(=O)Cc2ccccc2)CC[C@@]1(O)c1cccc(OC)c1)C([2H])([2H])[2H] [II-3hydrochloride] |  |  |  | μM((Weak inhibition) | 4.83
[2H]C([2H])([2H])Oc1cccc([C@]2(O)CCN(S(=O)(=O)Cc3ccccc3)C[C@H]2CN(C([2H])([2H])[2H])C([2H])([2H])[2H])c1 [II-5hydrochloride] |  |  |  | μM((Weak inhibition) | 4.62
[2H]C([2H])([2H])N(C[C@@H]1CN(C(=O)Cc2cc(F)c(F)cc2F)CC[C@@]1(O)c1cccc(OC)c1)C([2H])([2H])[2H] [II-9hydrochloride] |  |  |  | μM((Weak inhibition) | 4.69
[2H]C([2H])([2H])Oc1cccc([C@]2(O)CCN(C(=O)Cc3cc(F)c(F)cc3F)C[C@H]2CN(C([2H])([2H])[2H])C([2H])([2H])[2H])c1 [II-11hydrochloride] |  |  |  | μM((Weak inhibition) | 4.69
